Data as given in PMC11243693, “Synthesis and Biological Evaluation of New Compounds with Nitroimidazole Moiety” (Molecules, 2024).
In brackets after ≈: the same amount, converted by molar mass. Where two headings read alike, the source gives them in different places.

Legend:
Type in all cases: cell-based
[1] = tested on: Candida tropicalis ATCC 1369; assay: Broth microdilution, C. tropicalis ATCC 1369; settings: Ct 1369
Experimental: (§1) The antibacterial activity of the obtained thiosemicarbazides and hydrazide–hydrazones was determined by evaluating their ability to inhibit microbial growth in vitro using the broth microdilution method, according to the guidelines of the European Committee on Antimicrobial Susceptibility Testing (EUCAST). The method involved the preparation of microbial suspensions with a standardized density of 0.5 on the McFarland scale (equivalent to 1.5 × 10^8 colony-forming units/mL for bacteria and […] for fungi). A solution of the test substances was then prepared (initial concentration 1000 µg/mL, diluted in sterile Mueller-Hinton broth for bacteria or Mueller-Hinton with 2% glucose for fungi). The test was carried out in 96-well polystyrene flat-bottom plates (Medlab, Poland) with 100 µL of appropriate sterile microbiological medium in each well. The first wells were filled with 200 µL of the test substance, diluted to the initial concentration, and then double-decreasing dilutions were made under aseptic conditions using an automatic pipette. The final step was the addition of a 10-fold diluted microbial suspension of 2 µL. At the same time, the following controls were included: (a) medium control (100 µL of sterile medium without microorganisms added), (b) microbial viability control, (c) test substance control (dilutions without added micro-organisms), (d) positive control of the drug used in the clinic. The plates thus prepared were incubated for 18 ± 2 h at 35 ± 2 °C under conditions optimal for the growth of the test microorganisms. After incubation, the spectrophotometric absorbance at 570 nm in each well of the plate was read. The aim of this part of the study was to determine two parameters: the minimum inhibitory concentration (MIC) and the minimum bactericidal or fungicidal concentration (MBC/MFC) of the test compound. […] The MBC value was determined by adding 5 µL of the contents of each well of the plate to solid sterile MHA or MHA + 2%glc medium for bacteria and fungi, respectively. The area on the plate where 99.9% inhibition of microbial growth was observed indicated the lethal concentration. In addition, the quotient MBC(MFC)/MIC could be determined to assess the nature of the activity of the test substance. If MBC(MFC)/MIC was <4, the test substance was bactericidal/fungicidal, whereas if MBC(MFC)/MIC was ≥4, it was bacteriostatic/fungistatic. Amoxicillin (Glentham Life Sciences, USA) and nystatin (Glentham Life Sciences, USA) were used as the controls for this assay.
(§2) The test was performed either on bacteria, comprising: Gram-positive (Staphylococcus aureus ATCC 25923, Staphylococcus aureus ATCC 6538, Staphylococcus aureus ATCC 43300 methicillin-resistant MRSA, Staphylococcus epidermidis ATCC 12228, Micrococcus luteus ATCC 10240, Bacillus subtilis ATCC 6633, Bacillus cereus ATCC 10876) and Gram-negative (Escherichia coli ATCC 25922, Pseudomonas aeruginosa ATCC 27853, Proteus mirabilis ATCC 12453, Klebsiella pneumoniae ATCC 13883) or yeast (Candida parapsilosis ATCC 22019, Candida glabrata ATCC 90030, Candida krusei ATCC 14243, Candida glabrata ATCC 15126, Candida tropicalis ATCC 1369, Candida auris CDC B11903, Candida lusitaniae ATCC 3449) reference strains from the American Type Culture Collection (ATCC) or the Centers for Disease Control and Prevention (CDC).

[2] = tested on: Candida parapsilosis ATCC 22019; assay: Broth microdilution, C. parapsilosis ATCC 22019; settings: Cp 22019
Experimental: as §1, §2

[3] = tested on: Candida glabrata ATCC 15126; assay: Broth microdilution, C. glabrata ATCC 15126; settings: Cg 15126
Experimental: as §1, §2

[4] = tested on: Staphylococcus epidermidis ATCC 12228; assay: Broth microdilution, S. epidermidis ATCC 12228; settings: Se 12228
Experimental: as §1, §2

[5] = tested on: Candida glabrata ATCC 90030; assay: Broth microdilution, C. glabrata ATCC 90030; settings: Cg 90030
Experimental: as §1, §2

[6] = tested on: Candida lusitaniae ATCC 3449; assay: Broth microdilution, C. lusitaniae ATCC 3449; settings: Cl 3449
Experimental: as §1, §2

[7] = tested on: Micrococcus luteus ATCC 10240; assay: Broth microdilution, M. luteus ATCC 10240; settings: Ml 10240; for MBC/MIC Ratio: <4 bactericidal, ≥4 bacteriostatic
Experimental: as §1, §2

Candida auris CDC B11903 = assay: Broth microdilution, C. auris CDC B11903; settings: Ca B11903
Experimental: as §1, §2

[8] = tested on: Bacillus subtilis ATCC 6633; assay: Broth microdilution, B. subtilis ATCC 6633; settings: Bs 6633; for MBC/MIC Ratio: <4 bactericidal, ≥4 bacteriostatic
Experimental: as §1, §2

[9] = tested on: Candida krusei ATCC 14243; assay: Broth microdilution, C. krusei ATCC 14243; settings: Ck 14243
Experimental: as §1, §2

[10] = tested on: Staphylococcus aureus ATCC 25923; assay: Broth microdilution, S. aureus ATCC 25923; settings: Sa 25923
Experimental: as §1, §2

[11] = tested on: Staphylococcus aureus ATCC 6538; assay: Broth microdilution, S. aureus ATCC 6538; settings: Sa 6538
Experimental: as §1, §2

[12] = tested on: Bacillus cereus ATCC 10876; assay: Broth microdilution, B. cereus ATCC 10876; settings: Bc 10876; for MBC/MIC Ratio: <4 bactericidal, ≥4 bacteriostatic
Experimental: as §1, §2

[13] = tested on: Staphylococcus aureus ATCC 43300 methicillin-resistant MRSA; assay: Broth microdilution, S. aureus ATCC 43300 MRSA; settings: Sa 43300 MRSA
Experimental: as §1, §2

[14] = <4 bactericidal, ≥4 bacteriostatic
[15] = Staphylococcus epidermidis, ATCC12228, read-out: MBC
[16] = Staphylococcus epidermidis, ATCC12228, read-out: MIC
[17] = Micrococcus luteus, ATCC10240, read-out: MBC
[18] = Micrococcus luteus, ATCC10240, read-out: MIC
[19] = Bacillus subtilis, ATCC6633, read-out: MBC
[20] = Bacillus subtilis, ATCC6633, read-out: MIC
[21] = Staphylococcus aureus, ATCC25923, read-out: MBC
[22] = Staphylococcus aureus, ATCC25923, read-out: MIC
[23] = Staphylococcus aureus, ATCC6538, read-out: MBC
[24] = Staphylococcus aureus, ATCC6538, read-out: MIC
[25] = Bacillus cereus, ATCC10876, read-out: MBC
[26] = Bacillus cereus, ATCC10876, read-out: MIC
[27] = Staphylococcus aureus, read-out: MBC
[28] = Staphylococcus aureus, read-out: MIC

Structure (SMILES): Cn1cc([N+](=O)[O-])nc1C(=O)NNC(=S)Nc1ccc(F)cc1 [Compound 8]
- MFC [1]: >1000 µg/mL
- MIC [1]: 250 µg/mL (≈ 739 µM)
- MFC [2]: >1000 µg/mL
- MIC [2]: 1000 µg/mL (≈ 2960 µM)
- MIC [3]: >1000 µg/mL
- MBC [4]: 500 µg/mL (≈ 1480 µM)
- MIC [4]: 500 µg/mL (≈ 1480 µM)
- MBC/MIC Ratio [4, 14]: 1
- MIC [5]: >1000 µg/mL
- MIC [6]: >1000 µg/mL
- MBC [7]: 500 µg/mL (≈ 1480 µM)
- MIC [7]: 250 µg/mL (≈ 739 µM)
- MBC/MIC Ratio [7]: 2
- MIC (Candida auris CDC B11903): >1000 µg/mL
- MBC [8]: 250 µg/mL (≈ 739 µM)
- MIC [8]: 250 µg/mL (≈ 739 µM)
- MBC/MIC Ratio [8]: 1
- MIC [9]: >1000 µg/mL
- MBC [10]: >1000 µg/mL
- MIC [10]: 250 µg/mL (≈ 739 µM)
- MIC [11]: >1000 µg/mL
- MBC [12]: 1000 µg/mL (≈ 2960 µM)
- MIC [12]: 500 µg/mL (≈ 1480 µM)
- MBC/MIC Ratio [12]: 2
- MBC [13]: >1000 µg/mL
- MIC [13]: 1000 µg/mL (≈ 2960 µM)

Structure (SMILES): COc1ccc(NC(=S)NNC(=O)c2nc([N+](=O)[O-])cn2C)cc1 [Compound 11]
- MFC [1]: >1000 µg/mL
- MIC [1]: 250 µg/mL (≈ 714 µM)
- MFC [2]: >1000 µg/mL
- MIC [2]: 250 µg/mL (≈ 714 µM)
- MIC [3]: >1000 µg/mL
- MBC [4]: >1000 µg/mL
- MIC [4]: 500 µg/mL (≈ 1430 µM)
- MIC [5]: >1000 µg/mL
- MIC [6]: >1000 µg/mL
- MBC [7]: 500 µg/mL (≈ 1430 µM)
- MIC [7]: 250 µg/mL (≈ 714 µM)
- MBC/MIC Ratio [7]: 2
- MIC (Candida auris CDC B11903): >1000 µg/mL
- MBC [8]: 250 µg/mL (≈ 714 µM)
- MIC [8]: 250 µg/mL (≈ 714 µM)
- MBC/MIC Ratio [8]: 1
- MIC [9]: >1000 µg/mL
- MBC [10]: >1000 µg/mL
- MIC [10]: 500 µg/mL (≈ 1430 µM)
- MBC [11]: >1000 µg/mL
- MIC [11]: 1000 µg/mL (≈ 2850 µM)
- MBC [12]: 250 µg/mL (≈ 714 µM)
- MIC [12]: 250 µg/mL (≈ 714 µM)
- MBC/MIC Ratio [12]: 1
- MBC [13]: >1000 µg/mL
- MIC [13]: 1000 µg/mL (≈ 2850 µM)

Structure (SMILES): Cc1ccc(NC(=S)NNC(=O)c2nc([N+](=O)[O-])cn2C)cc1 [Compound 17, 1-[(1-methyl-4-nitroimidazol-2-yl)carbonyl]-4-(4-methylphenyl)thiosemicarbazide]
- MFC ([1]; Candida tropicalis, ATCC1369, read-out: MFC): > 1000 µg/mL
- MIC ([1]; Candida tropicalis, ATCC1369, read-out: MIC): 250 µg/mL (≈ 748 µM)
- MIC ([2]; Lodderomyces parapsilosis, ATCC22019, read-out: MIC): > 1000 µg/mL
- MIC ([3]; Nakaseomyces glabratus, ATCC15126, read-out: MIC): > 1000 µg/mL
- MBC [4, 15]: > 1000 µg/mL
- MIC [4, 16]: 500 µg/mL (≈ 1500 µM)
- MIC ([5]; Nakaseomyces glabratus, ATCC90030, read-out: MIC): > 1000 µg/mL
- MIC ([6]; Clavispora lusitaniae, ATCC3449, read-out: MIC): > 1000 µg/mL
- MBC [7, 17]: > 1000 µg/mL
- MIC [7, 18]: 500 µg/mL (≈ 1500 µM)
- MIC (Candida auris CDC B11903; Candidozyma auris, CDCB11903, read-out: MIC): > 1000 µg/mL
- MBC [8, 19]: > 1000 µg/mL
- MIC [8, 20]: 500 µg/mL (≈ 1500 µM)
- MIC ([9]; Pichia kudriavzevii, ATCC14243, read-out: MIC): > 1000 µg/mL
- MBC [10, 21]: > 1000 µg/mL
- MIC [10, 22]: 125 µg/mL (≈ 374 µM)
- MBC/MIC Ratio [11, 14]: 1
- MBC [11, 23]: 125 µg/mL (≈ 374 µM)
- MIC [11, 24]: 125 µg/mL (≈ 374 µM)
- MBC [12, 25]: > 1000 µg/mL
- MIC [12, 26]: 62.5 µg/mL (≈ 187 µM)
- MBC [13, 27]: > 1000 µg/mL
- MIC [13, 28]: 125 µg/mL (≈ 374 µM)

Structure (SMILES): CC1(C)S[C@@H]2[C@H](NC(=O)[C@H](N)c3ccc(O)cc3)C(=O)N2[C@H]1C(=O)O [AMX, amoxicillin, reference compound]
- MBC [4, 15]: 0.98 µg/mL (≈ 2.68 µM)
- MIC [4, 16]: 0.98 µg/mL (≈ 2.68 µM)
- MBC [7, 17]: 0.98 µg/mL (≈ 2.68 µM)
- MIC [7, 18]: 0.98 µg/mL (≈ 2.68 µM)
- MBC [8, 19]: 125 µg/mL (≈ 342 µM)
- MIC [8, 20]: 125 µg/mL (≈ 342 µM)
- MBC [10, 21]: 0.98 µg/mL (≈ 2.68 µM)
- MIC [10, 22]: 0.98 µg/mL (≈ 2.68 µM)
- MBC [11, 23]: 0.98 µg/mL (≈ 2.68 µM)
- MIC [11, 24]: 0.98 µg/mL (≈ 2.68 µM)
- MBC [12, 25]: 125 µg/mL (≈ 342 µM)
- MIC [12, 26]: 125 µg/mL (≈ 342 µM)
- MBC [13, 27]: 31.2 µg/mL (≈ 85.5 µM)
- MIC [13, 28]: 31.2 µg/mL (≈ 85.5 µM)

Structure (SMILES): C[C@@H]1[C@H](O)[C@@H](C)/C=C/C=C/CC/C=C/C=C/C=C/C=C/C(O[C@H]2O[C@H](C)[C@@H](O)[C@H](N)[C@@H]2O)CC2O[C@](O)(CC(O)C(O)CCC(O)CC(O)CC(O)CC(=O)O[C@H]1C)CC(O)C2C(=O)O (stereo partly shown) [NYS, nystatin, reference compound]
- MFC [1]: 0.5 µg/mL (≈ 0.54 µM)
- MIC [1]: <0.781 µg/mL
- MFC [2]: 12.5 µg/mL (≈ 13.5 µM)
- MIC [2]: 12.5 µg/mL (≈ 13.5 µM)
- MFC [3]: 3.125 µg/mL (≈ 3.37 µM)
- MIC [3]: 1.56 µg/mL (≈ 1.68 µM)
- MFC [5]: 3.125 µg/mL (≈ 3.37 µM)
- MIC [5]: 1.56 µg/mL (≈ 1.68 µM)
- MFC [6]: 3.125 µg/mL (≈ 3.37 µM)
- MIC [6]: 1.56 µg/mL (≈ 1.68 µM)
- MFC (Candida auris CDC B11903): 15.625 µg/mL (≈ 16.9 µM)
- MIC (Candida auris CDC B11903): 6.25 µg/mL (≈ 6.75 µM)
- MFC [9]: 12.5 µg/mL (≈ 13.5 µM)
- MIC [9]: 12.5 µg/mL (≈ 13.5 µM)
